In article PMC8878324, “Evaluation of New Antimicrobial Agents Based on tris(1H-Indol-3-yl)methylium Salts: Activity, Toxicity, Suppression of Experimental Sepsis in Mice” (Pharmaceuticals, 2022):
Read-outs that look alike come from different tables or passages of the source.

Columns and labels:
S. aureus 10 = assay: Model of staphylococcal sepsis in mice; type: in vivo; details: for Death (%) / Survival Rate (%): 14 days; for Dead animals/survivors: 3 mg/kg
Experimental: To determine the ability of drugs to suppress staphylococcal sepsis, a clinical isolate of S. aureus 10, lacking drug resistance and adapted for use in animals, was used. Animals, divided into several experimental groups, were intravenously infected with a lethal dose of S. aureus (0.1 mL each) (Groups 1–5). […] Along with the testing of compounds of the trisndolylmethylium class, a similar experiment was carried out with levofloxacin, taken as a reference drug for a separate group of animals (Group 4). The control group of animals received an intravenous injection of 5% glucose solution instead of the tested preparations (Group 5). Another control group, which also received a single injection of 5% glucose solution, consisted of animals that were not exposed to infection (Group 6). To study each drug, 110–150 animals were required, which were divided into small subgroups of 10 mice each to test various doses of the compounds studied. The number of dead animals and the time of their death were recorded daily, and the appearance of the animals and their weight were assessed. The duration of the experiment was 14 days.
The study was conducted on adult female SHK mice (18–20 g) obtained from the animal breeding unit of the FMBA (Scientific Center for Biomedical Technologies of the Federal Biomedical Agency, Moscow, Russia). The animals were randomly divided into groups (n = 6 for the study of acute toxicity, n = 10 (or 8) to study the efficacy of suppressing staphylococcal sepsis). The study of the effectiveness of drugs in the treatment of staphylococcal sepsis required the use of 110–175 mice for each drug, 10 animals per group. The animal study was approved by the Ethics of Animal Experimentation of Gause Institute of New Antibiotics (protocol No 13/2019).
The experiment used a strain of S. aureus 10, having no drug resistance and adapted for use in animals. Initially, the 100% lethal dose (LD100) was determined for this pathogen strain in SHK mice, i.e., the dose of the pathogen at which the death of 100% of the animals was recorded. LD100 dose of staphylococcus detected in the experiment was 8.0 × 10^8 CFU/mouse, which was then used for infecting animals.
The chemotherapeutic efficacy of tris(indolyl)methane derivatives was determined in a model of staphylococcal sepsis in mice. Mice of the SHK colony, weighing 18–20 g, were infected intravenously (into the tail vein) with a lethal dose of staphylococcus (0.1 mL of solution). One hour after infection, mice were injected intravenously (0.2 mL of solution each) with the tested tris(indolyl)methane derivatives in the range of doses from 0.1 to 40 mg/kg. For tested drugs, we used solutions prepared in 5% glucose solution. The study of the effectiveness of each drug was conducted on 115–155 mice (10 mice per group). The duration of the experiment was 14 days. The number of dead animals and the time of their death were recorded daily, and the body weight of the animals was recorded three times a week. Their feed intake was monitored, and clinical signs of animal health were assessed daily.
To determine the effectiveness of the tested drugs, 50% effective doses (ED50) were used, which was determined by the Behrens method (frequency accumulation method), as well as by the Litchfield and Wilcoxon method using the StatPlus 2006 software. For all data, the mean and standard deviation were calculated. The differences were defined as significant at p ≤ 0.05.

HPF-hTERT = assay: Cytotoxic activity, MTT assay; type: cell-based, human; details: 72 h
Experimental: (§1) The cytotoxic activity of the compounds was evaluated on the healthy donor (postnatal) human fibroblasts immortalized by transfection of the hTERT gene of the catalytic component of telomerase (hereinafter HPF-hTERT) that were obtained from N.N. Blokhin Russian Cancer Research Center. HFC-hTERT cells were cultured in Dulbecco’s modified medium (DMEM) containing 2 mM of L-glutamine, 10% fetal calf serum, 100 U/mL of penicillin and 100 μg/mL of streptomycin. Incubation was performed in a humidified atmosphere of 5% CO2 at 37 °C. In the experiment, we used cells in the logarithmic growth phase. To study the cytotoxicity of compounds, 190 μL of cell suspension (~2 thousand cells per well) was added to the wells of 96-well plates and incubated for 16 h. On the day of the experiment, serial dilutions of the test compounds were prepared in DMSO (stock solution—10 mM in 100% DMSO). Further dilutions were conducted in a nutrient medium. The final concentrations of compounds in the experiment were in a concentration range from 0.0025 to 50 μM. The final concentration of DMSO was 1% or less. Each concentration was presented in 3 repetitions. […] The cells were incubated with the test compounds for 72 h. After the end of incubation, 20 μL of MTT solution in growth medium (5 mg/mL) was added to the wells. The cells were incubated for 2 h until a purple color developed, after which the culture medium was removed. DMSO was added to the wells, and the sediment was suspended. Optical density was measured with a Thermo Scientific Multiscan FC spectrophotometer at 570 nm. The values of optical density in wells without addition of test compounds (control) were taken as 100% cell survival. The percentage of survival of cells incubated with the test compounds was calculated by dividing the optical density in the corresponding well (average of 3 independent measurements) by the optical density in the control. The concentration of drugs causing 50% cell death (IC50) was evaluated and expressed in μg/mL.

[1] = Cytotoxic activity, MTT assay; type: cell-based, human; details: human, HPF-hTERT
Experimental: as §1

[2] = 3 mg/kg i.v., Double administration
[3] = Staphylococcus aureus, 10, iv, 1 h
[4] = single i.v. 3.0 mg/kg 1 h after infection
[5] = single i.v. 5.0 mg/kg 1 h after infection
[6] = single i.v. 7.0 mg/kg 1 h after infection
[7] = single i.v. 9.0 mg/kg 1 h after infection
[8] = single i.v. 11.0 mg/kg 1 h after infection
[9] = single i.v. 13.0 mg/kg 1 h after infection
[10] = single i.v. 10.0 mg/kg 1 h after infection
[11] = single i.v. 15.0 mg/kg 1 h after infection
[12] = single i.v. 20.0 mg/kg 1 h after infection
[13] = single i.v. 25.0 mg/kg 1 h after infection
[14] = single i.v. 30.0 mg/kg 1 h after infection
[15] = single i.v. 35.0 mg/kg 1 h after infection
[16] = single i.v. 0.5 mg/kg 1 h after infection
[17] = single i.v. 1.0 mg/kg 1 h after infection
[18] = single i.v. 1.5 mg/kg 1 h after infection
[19] = single i.v. 1.75 mg/kg 1 h after infection
[20] = single i.v. 2.0 mg/kg 1 h after infection
[21] = single i.v. 4.0 mg/kg 1 h after infection
[22] = single i.v. 6.0 mg/kg 1 h after infection

OCCCCCn1cc([C+](c2cn(CCCCCO)c3ccccc23)c2cn(CCCCCO)c3ccccc23)c2ccccc21.[Cl-] [Compound 1, tris(1-(5-Hydroxypentyl)-1H-indol-3-yl) methylium chloride]
Death (%) (S. aureus 10; [2]): 75%
Survival Rate (%) (S. aureus 10; [2]): 25%
Dead animals/survivors (S. aureus 10; Double, day 0): 0/8
Dead animals/survivors (S. aureus 10; Double, day 3): 0/8
Dead animals/survivors (S. aureus 10; Double, day 4): 1/7
Dead animals/survivors (S. aureus 10; Double, day 6): 3/5
Dead animals/survivors (S. aureus 10; Double, day 7): 4/4
Dead animals/survivors (S. aureus 10; Double, day 8): 4/4
Dead animals/survivors (S. aureus 10; Double, day 9): 5/3
Dead animals/survivors (S. aureus 10; Double, day 10): 6/2
Dead animals/survivors (S. aureus 10; Double, day 12): 6/2
Dead animals/survivors (S. aureus 10; Double, day 14): 6/2
Dead animals/survivors (S. aureus 10; One-time, day 0): 0/8
Dead animals/survivors (S. aureus 10; One-time, day 3): 1/7
Dead animals/survivors (S. aureus 10; One-time, day 4): 2/6
Dead animals/survivors (S. aureus 10; One-time, day 6): 4/4
Dead animals/survivors (S. aureus 10; One-time, day 7): 5/3
Dead animals/survivors (S. aureus 10; One-time, day 8): 5/3
Dead animals/survivors (S. aureus 10; One-time, day 9): 6/2
Dead animals/survivors (S. aureus 10; One-time, day 10): 7/1
Dead animals/survivors (S. aureus 10; One-time, day 12): 7/1
Dead animals/survivors (S. aureus 10; One-time, day 14): 7/1
Dead animals/survivors (S. aureus 10; Three-fold, day 0): 0/8
Dead animals/survivors (S. aureus 10; Three-fold, day 3): 0/8
Dead animals/survivors (S. aureus 10; Three-fold, day 4): 1/7
Dead animals/survivors (S. aureus 10; Three-fold, day 6): 2/6
Dead animals/survivors (S. aureus 10; Three-fold, day 7): 3/5
Dead animals/survivors (S. aureus 10; Three-fold, day 8): 3/5
Dead animals/survivors (S. aureus 10; Three-fold, day 9): 4/4
Dead animals/survivors (S. aureus 10; Three-fold, day 10): 5/3
Dead animals/survivors (S. aureus 10; Three-fold, day 12): 5/3
Dead animals/survivors (S. aureus 10; Three-fold, day 14): 5/3
ED50 (S. aureus 10; [3]): 7.6 mg/kg
survival rate (S. aureus 10; dose of 9–11 mg/kg, single i.v.): ~40%
Death (%) (S. aureus 10; [4]): 87.5%
Survival Rate (%) (S. aureus 10; [4]): 12.5%
Death (%) (S. aureus 10; [5]): 75%
Survival Rate (%) (S. aureus 10; [5]): 25%
Death (%) (S. aureus 10; [6]): 75%
Survival Rate (%) (S. aureus 10; [6]): 25%
Death (%) (S. aureus 10; [7]): 62.5%
Survival Rate (%) (S. aureus 10; [7]): 37.5%
Death (%) (S. aureus 10; [8]): 62.5%
Survival Rate (%) (S. aureus 10; [8]): 37.5%
Death (%) (S. aureus 10; [9]): 75%
Survival Rate (%) (S. aureus 10; [9]): 25%
Cytotoxic Activity IC50 (HPF-hTERT): 13 µg/mL
IC50 at 72 h [1]: 12.6 µg/mL

CCCn1cc([C+](c2cn(CCC)c3ccccc23)c2cn(C3=C(N)C(=O)NC3=O)c3ccccc23)c2ccccc21.[Cl-] [Compound 2, (1-(4-Amino-2,5-dioxo-2,5-dihydro-1H-pyrrol-3-yl)-1H-indol-3-yl)bis(1-propyl-1H-indol-3-yl) methylium chloride]
ED50 (S. aureus 10; [3]): 18.3 mg/kg
Death (%) (S. aureus 10; [5]): 80%
Survival Rate (%) (S. aureus 10; [5]): 20%
Death (%) (S. aureus 10; [10]): 70%
Survival Rate (%) (S. aureus 10; [10]): 30%
Death (%) (S. aureus 10; [11]): 60%
Survival Rate (%) (S. aureus 10; [11]): 40%
Death (%) (S. aureus 10; [12]): 40%
Survival Rate (%) (S. aureus 10; [12]): 60%
Death (%) (S. aureus 10; [13]): 40%
Survival Rate (%) (S. aureus 10; [13]): 60%
Death (%) (S. aureus 10; [14]): 20%
Survival Rate (%) (S. aureus 10; [14]): 80%
Death (%) (S. aureus 10; [15]): 30%
Survival Rate (%) (S. aureus 10; [15]): 70%
Cytotoxic Activity IC50 (HPF-hTERT): 2.8 µg/mL
IC50 at 72 h [1]: 2.77 µg/mL

CCCn1cc([C+](c2cn(CCC)c3ccccc23)c2cn(C3=C(N(C)C)C(=O)NC3=O)c3ccccc23)c2ccccc21 [Compound 3, 1-(4-Dimethylamino-2,5-dioxo-2,5-dihydro-1H-pyrrol-3-yl) -1H-indol-3-yl) bis(1-propyl-1H-indol-3-yl) methylium chloride]
ED50 (S. aureus 10; Staphylococcus aureus, 10, single intravenous administration 1 h after infection, read-out: ED50): 1.09 mg/kg
first mortality, day of the experiment (S. aureus 10; experimental group 3): 6 to 7 days
last death, day of the experiment (S. aureus 10; experimental group 3): 12 days
Death (%) (S. aureus 10; [16]): 70%
Survival Rate (%) (S. aureus 10; [16]): 30%
Death (%) (S. aureus 10; [17]): 50%
Survival Rate (%) (S. aureus 10; [17]): 50%
Death (%) (S. aureus 10; [18]): 40%
Survival Rate (%) (S. aureus 10; [18]): 60%
Death (%) (S. aureus 10; [19]): 10%
Survival Rate (%) (S. aureus 10; [19]): 90%
Death (%) (S. aureus 10; [20]): 0%
Survival Rate (%) (S. aureus 10; [20]): 100%
Cytotoxic Activity IC50 (HPF-hTERT): 0.6 µg/mL
IC50 at 72 h [1]: 0.57 µg/mL

C[C@H]1COc2c(N3CCN(C)CC3)c(F)cc3c(=O)c(C(=O)O)cn1c23 [Levofloxacin, levofloxacin, reference compound]
ED50 (S. aureus 10; [3]): 3.5 mg/kg
Death (%) (S. aureus 10; [17]): 90%
Survival Rate (%) (S. aureus 10; [17]): 10%
Death (%) (S. aureus 10; [20]): 60%
Survival Rate (%) (S. aureus 10; [20]): 40%
Death (%) (S. aureus 10; [21]): 40%
Survival Rate (%) (S. aureus 10; [21]): 60%
Death (%) (S. aureus 10; [22]): 30%
Survival Rate (%) (S. aureus 10; [22]): 70%
dose that saved the lives of 50% of infected animals (S. aureus 10; single injection): about 4 mg/kg
IC50 at 72 h [1]: > 50 µg/mL
